# Assay results as given in ChEMBL document CHEMBL1201861, “Genomics of Drug Sensitity in Cancer screening data, Wellcome Trust Sanger Institute”.
# Experiments:
# Test in all cases: cells
# D-502MG = format: functional, cell-based, Homo sapiens; conditions: Homo sapiens, D-502MG
# Description: SANGER: Inhibition of human D-502MG cell growth in a cell viability assay.
# DEL = format: functional, cell-based, Homo sapiens; conditions: Homo sapiens, DEL;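 note: growth inhibition of the human DEL cell line, read out with a cell viability assay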
# Description: SANGER: Inhibition of human DEL cell growth in a cell viability assay.
# DMS-114 = format: functional, cell-based, Homo sapiens; conditions: Homo sapiens, DMS-114
# DOHH-2 = format: functional, cell-based, Homo sapiens; conditions: Homo sapiens, DOHH-2;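 note: growth inhibition of human DOHH-2 cells, read out with a cell viability assay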
# Description: SANGER: Inhibition of human DOHH-2 cell growth in a cell viability assay.
# EM-2 = format: functional, cell-based, Homo sapiens; conditions: Homo sapiens, EM-2;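 note: growth inhibition of EM-2 cells, read out with a cell viability assay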
# Description: SANGER: Inhibition of human EM-2 cell growth in a cell viability assay.
# ES3 = format: functional, cell-based, Homo sapiens; conditions: Homo sapiens, ES3;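 note: growth inhibition of ES3 cells, read out with a cell viability assay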
# Description: SANGER: Inhibition of human ES3 cell growth in a cell viability assay.
# ETK-1 = format: functional, cell-based, Homo sapiens; conditions: Homo sapiens, ETK-1;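 note: growth inhibition of human ETK-1 cells, read out with a cell viability assay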
# Description: SANGER: Inhibition of human ETK-1 cell growth in a cell viability assay.
# EW-11 = format: functional, cell-based, Homo sapiens; conditions: Homo sapiens, EW-11;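 note: growth inhibition of human EW-11 cells, measured with a cell viability assay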
# Description: SANGER: Inhibition of human EW-11 cell growth in a cell viability assay.
# EW-13 = format: functional, cell-based, Homo sapiens; conditions: Homo sapiens, EW-13;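 note: growth inhibition of EW-13 cells, read out with a cell viability assay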
# Description: SANGER: Inhibition of human EW-13 cell growth in a cell viability assay.
# EW-3 = format: functional, cell-based, Homo sapiens; conditions: Homo sapiens, EW-3;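 note: cell viability assay read-out, IC50 reflects inhibition of growth of the EW-3 cells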
# Description: SANGER: Inhibition of human EW-3 cell growth in a cell viability assay.
# HCE-T = format: functional, cell-based, Homo sapiens; conditions: Homo sapiens, HCE-T;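 note: cell viability assay read-out, reporting inhibition of HCE-T cell growth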
# Description: SANGER: Inhibition of human HCE-T cell growth in a cell viability assay.
# HH = format: functional, cell-based, Homo sapiens; conditions: Homo sapiens, HH
# Description: SANGER: Inhibition of human HH cell growth in a cell viability assay.
# IST-SL1 = format: functional, cell-based, Homo sapiens; conditions: Homo sapiens, IST-SL1;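 note: growth inhibition of human IST-SL1 cells, read out with a cell viability assay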
# Description: SANGER: Inhibition of human IST-SL1 cell growth in a cell viability assay.
# JVM-2 = format: functional, cell-based, Homo sapiens; conditions: Homo sapiens, JVM-2;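 note: growth inhibition of JVM-2 cells determined by a cell viability assay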
# Description: SANGER: Inhibition of human JVM-2 cell growth in a cell viability assay.
# JVM-3 = format: functional, cell-based, Homo sapiens; conditions: Homo sapiens, JVM-3;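 note: growth inhibition of human JVM-3 cells, read out with a cell viability assay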
# Description: SANGER: Inhibition of human JVM-3 cell growth in a cell viability assay.
# K5 = format: functional, cell-based, Homo sapiens; conditions: Homo sapiens, K5
# Description: SANGER: Inhibition of human K5 cell growth in a cell viability assay.
# KALS-1 = format: functional, cell-based, Homo sapiens; conditions: Homo sapiens, KALS-1;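 note: growth inhibition of KALS-1 cells, determined with a cell viability assay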
# Description: SANGER: Inhibition of human KALS-1 cell growth in a cell viability assay.
# KARPAS-45 = format: functional, cell-based, Homo sapiens; conditions: Homo sapiens, KARPAS-45;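 note: inhibition of cell line growth, read out through a viability assay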
# Description: SANGER: Inhibition of human KARPAS-45 cell growth in a cell viability assay.
# KGN = format: functional, cell-based, Homo sapiens; conditions: Homo sapiens, KGN;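 note: growth inhibition of KGN cells, read out with a cell viability assay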
# Description: SANGER: Inhibition of human KGN cell growth in a cell viability assay.
# KNS-42 = format: functional, cell-based, Homo sapiens; conditions: Homo sapiens, KNS-42;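 note: growth inhibition of KNS-42 cells, read out with a cell viability assay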
# Description: SANGER: Inhibition of human KNS-42 cell growth in a cell viability assay.
# LAMA-84 = format: functional, cell-based, Homo sapiens; conditions: Homo sapiens, LAMA-84;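 note: growth inhibition of LAMA-84 cells, read out with a cell viability assay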
# Description: SANGER: Inhibition of human LAMA-84 cell growth in a cell viability assay.
# LB2518-MEL = format: functional, cell-based, Homo sapiens; conditions: Homo sapiens, LB2518-MEL;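 note: growth inhibition of human LB2518-MEL cells, measured with a cell viability assay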
# Description: SANGER: Inhibition of human LB2518-MEL cell growth in a cell viability assay.
# LB771-HNC = format: functional, cell-based, Homo sapiens; conditions: Homo sapiens, LB771-HNC;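 note: growth inhibition of LB771-HNC human cells, read out with a cell viability assay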
# Description: SANGER: Inhibition of human LB771-HNC cell growth in a cell viability assay.
# LB831-BLC = format: functional, cell-based, Homo sapiens; conditions: Homo sapiens, LB831-BLC;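 note: growth inhibition of LB831-BLC cells, read out with a cell viability assay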
# Description: SANGER: Inhibition of human LB831-BLC cell growth in a cell viability assay.
# LS-411N = format: functional, cell-based, Homo sapiens; conditions: Homo sapiens, LS-411N
# LS-513 = format: functional, cell-based, Homo sapiens; conditions: Homo sapiens, LS-513
# Description: SANGER: Inhibition of human LS-513 cell growth in a cell viability assay.
# MFM-223 = format: functional, cell-based, Homo sapiens; conditions: Homo sapiens, MFM-223
# Description: SANGER: Inhibition of human MFM-223 cell growth in a cell viability assay.
# MN-60 = format: functional, cell-based, Homo sapiens; conditions: Homo sapiens, MN-60;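 note: growth inhibition of the MN-60 cell line, determined with a cell viability assay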
# Description: SANGER: Inhibition of human MN-60 cell growth in a cell viability assay.
# MS-1 = format: functional, cell-based, Homo sapiens; conditions: Homo sapiens, MS-1
# Description: SANGER: Inhibition of human MS-1 cell growth in a cell viability assay.
# MV4-11 = format: functional, cell-based, Homo sapiens, MV-4-11; conditions: Homo sapiens, MV4-11;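 note: cell viability readout measuring growth inhibition of human MV-4-11 cells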
# Description: SANGER: Inhibition of human MV-4-11 cell growth in a cell viability assay.
# NB17 = format: functional, cell-based, Homo sapiens; conditions: Homo sapiens, NB17;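 note: growth inhibition of NB17 cells, read out with a cell viability assay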
# Description: SANGER: Inhibition of human NB17 cell growth in a cell viability assay.
# NCI-H1355 = format: functional, cell-based, Homo sapiens; conditions: Homo sapiens, NCI-H1355;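 note: growth inhibition of human NCI-H1355 cells, read out by a cell viability assay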
# Description: SANGER: Inhibition of human NCI-H1355 cell growth in a cell viability assay.
# NCI-H526 = format: functional, cell-based, Homo sapiens; conditions: Homo sapiens, NCI-H526;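 note: growth inhibition of the human NCI-H526 cell line, measured by a cell viability assay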
# Description: SANGER: Inhibition of human NCI-H526 cell growth in a cell viability assay.
# NMC-G1 = format: functional, cell-based, Homo sapiens; conditions: Homo sapiens, NMC-G1;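 note: growth inhibition of the NMC-G1 cell line, measured with a cell viability read-out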
# Description: SANGER: Inhibition of human NMC-G1 cell growth in a cell viability assay.
# OMC-1 = format: functional, cell-based, Homo sapiens; conditions: Homo sapiens, OMC-1;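 note: growth inhibition of the OMC-1 cell line, measured by a cell viability assay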
# Description: SANGER: Inhibition of human OMC-1 cell growth in a cell viability assay.
# P30-OHK = format: functional, cell-based, Homo sapiens; conditions: Homo sapiens, P30-OHK;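 note: growth inhibition of the P30-OHK cell line, read out with a cell viability assay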
# Description: SANGER: Inhibition of human P30-OHK cell growth in a cell viability assay.
# RH-1 = format: functional, cell-based, Homo sapiens; conditions: Homo sapiens, RH-1;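 note: growth inhibition of human RH-1 cells, read out with a cell viability assay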
# Description: SANGER: Inhibition of human RH-1 cell growth in a cell viability assay.
# RPMI-8226 = format: functional, cell-based, Homo sapiens; conditions: Homo sapiens, RPMI-8226
# Description: SANGER: Inhibition of human RPMI-8226 cell growth in a cell viability assay.
# SH-4 = format: functional, cell-based, Homo sapiens; conditions: Homo sapiens, SH-4;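 note: growth inhibition of SH-4 cells, read out with a cell viability assay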
# Description: SANGER: Inhibition of human SH-4 cell growth in a cell viability assay.
# SK-N-DZ = format: functional, cell-based, Homo sapiens; conditions: Homo sapiens, SK-N-DZ;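 note: growth inhibition of the cancer cell line, read out through a viability assay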
# Description: SANGER: Inhibition of human SK-N-DZ cell growth in a cell viability assay.
# SK-NEP-1 = format: functional, cell-based, Homo sapiens; conditions: Homo sapiens, SK-NEP-1;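 note: growth inhibition of human SK-NEP-1 cells, read out by a cell viability assay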
# Description: SANGER: Inhibition of human SK-NEP-1 cell growth in a cell viability assay.
# SNU-C2B = format: functional, cell-based, Homo sapiens; conditions: Homo sapiens, SNU-C2B;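 note: cell viability readout used to measure compound-driven suppression of SNU-C2B cell proliferation, IC50 marking half-maximal growth inhibition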
# Description: SANGER: Inhibition of human SNU-C2B cell growth in a cell viability assay.
# ALL-PO = format: functional, cell-based, Homo sapiens; conditions: Homo sapiens, ALL-PO;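 note: growth inhibition of ALL-PO cells, read out by a cell viability assay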
# Description: SANGER: Inhibition of human ALL-PO cell growth in a cell viability assay.
# ATN-1 = format: functional, cell-based, Homo sapiens; conditions: Homo sapiens, ATN-1;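 note: growth inhibition of human ATN-1 cells, read out with a cell viability assay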
# Description: SANGER: Inhibition of human ATN-1 cell growth in a cell viability assay.
# BV-173 = format: functional, cell-based, Homo sapiens; conditions: Homo sapiens, BV-173
# Description: SANGER: Inhibition of human BV-173 cell growth in a cell viability assay.
# C2BBe1 = format: functional, cell-based, Homo sapiens; conditions: Homo sapiens, C2BBe1;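 note: growth inhibition of C2BBe1 cells, read out through a viability assay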
# Description: SANGER: Inhibition of human C2BBe1 cell growth in a cell viability assay.
# CAS-1 = format: functional, cell-based, Homo sapiens; conditions: Homo sapiens, CAS-1;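 note: growth inhibition of CAS-1 cells, measured with a cell viability assay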
# Description: SANGER: Inhibition of human CAS-1 cell growth in a cell viability assay.
smiles,measurement,setting,value
COc1cc2ncn(-c3cc(OCc4ccccc4C(F)(F)F)c(C(N)=O)s3)c2cc1OC [GW843682X],IC50,D-502MG,> 0.256 µM
same,IC50,DEL,0.0199 µM
same,IC50,DMS-114,0.122 µM
same,IC50,DOHH-2,0.0608 µM
same,IC50,EM-2,0.111 µM
same,IC50,ES3,> 0.256 µM
same,IC50,ETK-1,0.0173 µM
same,IC50,EW-11,> 0.256 µM
same,IC50,EW-13,> 0.256 µM
same,IC50,EW-3,0.0663 µM
same,IC50,HCE-T,0.217 µM
same,IC50,HH,0.0988 µM
same,IC50,IST-SL1,> 0.256 µM
same,IC50,JVM-2,> 0.256 µM
same,IC50,JVM-3,> 0.256 µM
same,IC50,K5,0.0727 µM
same,IC50,KALS-1,0.0225 µM
same,IC50,KARPAS-45,0.00613 µM
same,IC50,KGN,0.0332 µM
same,IC50,KNS-42,0.0247 µM
same,IC50,LAMA-84,0.0399 µM
same,IC50,LB2518-MEL,0.107 µM
same,IC50,LB771-HNC,0.06 µM
same,IC50,LB831-BLC,0.2 µM
same,IC50,LS-411N,0.008 µM
same,IC50,LS-513,0.212 µM
same,IC50,MFM-223,> 0.256 µM
same,IC50,MN-60,> 0.256 µM
same,IC50,MS-1,0.016 µM
same,IC50,MV4-11,0.0259 µM
same,IC50,NB17,0.041 µM
same,IC50,NCI-H1355,0.0119 µM
same,IC50,NCI-H526,0.0883 µM
same,IC50,NMC-G1,0.206 µM
same,IC50,OMC-1,> 0.256 µM
same,IC50,P30-OHK,> 0.256 µM
same,IC50,RH-1,0.242 µM
same,IC50,RPMI-8226,0.0281 µM
same,IC50,SH-4,0.123 µM
same,IC50,SK-N-DZ,0.0374 µM
same,IC50,SK-NEP-1,0.0165 µM
same,IC50,SNU-C2B,0.00753 µM
same,IC50,ALL-PO,0.00876 µM
same,IC50,ATN-1,0.0241 µM
same,IC50,BV-173,0.0177 µM
same,IC50,C2BBe1,> 0.256 µM
same,IC50,CAS-1,> 0.256 µM
Cc1ccc(-c2c(C(=O)CCl)n(CCCO)c3ncnc(N)c23)cc1,IC50,D-502MG,> 4 µM
same,IC50,DEL,> 4 µM
same,IC50,DMS-114,> 4 µM
same,IC50,DOHH-2,2.7 µM
same,IC50,EM-2,> 4 µM
same,IC50,ES3,> 4 µM
same,IC50,ETK-1,> 4 µM
same,IC50,EW-11,> 4 µM
same,IC50,EW-13,> 4 µM
same,IC50,EW-3,> 4 µM
same,IC50,HCE-T,> 4 µM
same,IC50,HH,> 4 µM
same,IC50,IST-SL1,> 4 µM
same,IC50,JVM-2,> 4 µM
same,IC50,JVM-3,> 4 µM
same,IC50,K5,> 4 µM
same,IC50,KALS-1,> 4 µM
same,IC50,KARPAS-45,> 4 µM
same,IC50,KGN,> 4 µM
same,IC50,KNS-42,> 4 µM
same,IC50,LAMA-84,> 4 µM
same,IC50,LB2518-MEL,> 4 µM
same,IC50,LB771-HNC,> 4 µM
same,IC50,LB831-BLC,> 4 µM
same,IC50,LS-411N,> 4 µM
same,IC50,LS-513,> 4 µM
same,IC50,MFM-223,> 4 µM
same,IC50,MN-60,> 4 µM
same,IC50,MS-1,> 4 µM
same,IC50,MV4-11,> 4 µM
same,IC50,NB17,1.12 µM
same,IC50,NCI-H1355,> 4 µM
same,IC50,NCI-H526,> 4 µM
same,IC50,NMC-G1,> 4 µM
same,IC50,OMC-1,> 4 µM
same,IC50,P30-OHK,> 4 µM
same,IC50,RH-1,> 4 µM
same,IC50,RPMI-8226,> 4 µM
same,IC50,SH-4,> 4 µM
same,IC50,SK-N-DZ,> 4 µM
same,IC50,SK-NEP-1,> 4 µM
same,IC50,SNU-C2B,> 4 µM
same,IC50,ALL-PO,> 4 µM
same,IC50,ATN-1,> 4 µM
same,IC50,BV-173,> 4 µM
same,IC50,C2BBe1,2.74 µM
same,IC50,CAS-1,> 4 µM
